Test results: ChEMBL document CHEMBL1641432, “Design and synthesis of 3-pyridylacetamide derivatives as dipeptidyl peptidase IV (DPP-4) inhibitors targeting a bidentate interaction with Arg125” (Bioorg Med Chem, 2011)
Calls of active or inactive are those of the source. No cut-off for these calls is given here.

Legend:
[1] = Metabolic stability in rat hepatic microsomes assessed per mg of protein at 1 uM; assay type: ADME, Liver
[2] = target: Dipeptidyl peptidase 2 (Rattus norvegicus, UniProt Q9EPB1); experiment: Inhibition of rat kidney DDP2 after 60 mins by spectrophotometry
Sequence of Dipeptidyl peptidase 2 (Q9EPB1 whole entry): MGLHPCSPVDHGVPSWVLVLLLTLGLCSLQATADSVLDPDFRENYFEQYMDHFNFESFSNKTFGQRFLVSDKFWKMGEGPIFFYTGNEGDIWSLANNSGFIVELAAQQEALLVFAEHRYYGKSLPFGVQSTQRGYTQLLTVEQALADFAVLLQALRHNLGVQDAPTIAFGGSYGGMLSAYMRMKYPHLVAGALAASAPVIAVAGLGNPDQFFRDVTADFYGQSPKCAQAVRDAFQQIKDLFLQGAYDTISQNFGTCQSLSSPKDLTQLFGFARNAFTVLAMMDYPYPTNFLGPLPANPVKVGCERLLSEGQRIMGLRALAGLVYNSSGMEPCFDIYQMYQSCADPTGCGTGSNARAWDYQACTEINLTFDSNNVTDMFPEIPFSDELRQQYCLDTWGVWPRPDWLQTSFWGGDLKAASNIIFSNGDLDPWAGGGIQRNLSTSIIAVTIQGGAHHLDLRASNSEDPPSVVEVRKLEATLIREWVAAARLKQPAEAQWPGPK

[3] = target: Dipeptidyl peptidase 8 (Homo sapiens, UniProt Q6V1X1); experiment: Inhibition of human DDP8 expressed in HEK293-F cells after 90 mins by spectrophotometry; assay type: cell-based
Sequence of Dipeptidyl peptidase 8 (Q6V1X1 whole entry): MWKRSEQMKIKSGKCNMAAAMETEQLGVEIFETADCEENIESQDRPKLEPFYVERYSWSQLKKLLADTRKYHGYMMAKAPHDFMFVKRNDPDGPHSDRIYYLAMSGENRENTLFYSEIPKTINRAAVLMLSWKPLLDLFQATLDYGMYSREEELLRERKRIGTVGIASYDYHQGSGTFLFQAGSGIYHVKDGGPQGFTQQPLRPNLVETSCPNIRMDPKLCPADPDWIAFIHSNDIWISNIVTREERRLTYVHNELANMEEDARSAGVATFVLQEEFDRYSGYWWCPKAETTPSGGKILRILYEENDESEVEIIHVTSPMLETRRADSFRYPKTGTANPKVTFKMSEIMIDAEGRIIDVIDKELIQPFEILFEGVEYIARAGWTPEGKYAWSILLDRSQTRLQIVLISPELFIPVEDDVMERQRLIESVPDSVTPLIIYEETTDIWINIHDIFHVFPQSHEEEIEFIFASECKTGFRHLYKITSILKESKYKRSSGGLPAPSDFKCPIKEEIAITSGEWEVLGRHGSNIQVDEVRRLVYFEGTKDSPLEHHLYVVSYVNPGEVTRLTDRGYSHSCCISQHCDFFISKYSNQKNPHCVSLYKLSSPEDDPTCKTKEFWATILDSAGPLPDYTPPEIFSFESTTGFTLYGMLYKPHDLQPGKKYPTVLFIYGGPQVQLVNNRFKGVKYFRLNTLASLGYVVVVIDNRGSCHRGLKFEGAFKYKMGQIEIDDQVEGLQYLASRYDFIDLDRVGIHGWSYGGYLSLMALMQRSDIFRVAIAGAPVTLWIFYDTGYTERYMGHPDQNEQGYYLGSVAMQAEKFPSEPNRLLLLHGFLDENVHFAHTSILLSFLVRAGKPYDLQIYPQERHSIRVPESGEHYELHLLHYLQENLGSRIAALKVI

[4] = Bioavailability in rat at 0.1 mg/kg, iv and 1 mg/kg, po by LC/MS/MS analysis; assay type: ADME, organism-based; conditions: in vivo
[5] = Solubility of the compound at pH 1.2 after 2 hrs; assay type: physicochemical; conditions: buffer
[6] = species: Canis familiaris; conditions: Canis lupus familiaris; Plasma; 0.5 mg/kg
Description: Ex vivo inhibition of DDP4 in dog plasma at 0.5 mg/kg, po up to 1 hr

[7] = Metabolic stability in dog hepatic microsomes assessed per mg of protein at 1 uM; assay type: ADME, Canis lupus familiaris, Liver
[8] = Solubility of the compound at pH 6.8 after 2 hrs; assay type: physicochemical; conditions: buffer
[9] = Mean residence time in dog at 1 mg/kg, po by LC/MS/MS analysis; assay type: ADME, organism-based, Canis lupus familiaris; design: dose 1 mg/kg, route oral; conditions: in vivo
[10] = Metabolic stability in human hepatic microsomes assessed per mg of protein at 1 uM; assay type: ADME, Liver
[11] = Mean residence time in rat at 1 mg/kg, po by LC/MS/MS analysis; assay type: ADME, organism-based; design: dose 1 mg/kg, route oral; conditions: in vivo
[12] = Bioavailability in dog at 0.1 mg/kg, iv and 1 mg/kg, po by LC/MS/MS analysis; assay type: ADME, organism-based, Canis lupus familiaris; conditions: in vivo
[13] = system: Canis familiaris; experiment: Ex vivo inhibition of DDP4 in dog plasma at 0.5 mg/kg, po after 24 hrs; assay type: functional; conditions: Canis lupus familiaris

Stability [1]: < 1 µL/min | IC50 [2]: > 100 µM | IC50 [3]: > 30 µM | bioavailability [4]: 4.9% | solubility at 2 h [5]: 86 µg/mL | Stability [7]: 2 µL/min | solubility at 2 h [8]: 71 µg/mL | MRT [9]: 4.35 h | Stability [10]: 4 µL/min | MRT [11]: 11.2 h | bioavailability [12]: 21.3%
Structure (SMILES): Cc1ccc(-c2c(CC(=O)N3CCC[C@H]3C(N)=O)c(C)nc(CC(C)C)c2CN)cc1.Cl.Cl
inhibition [6]: Active | inhibition in vivo at 0.5 mg/kg [13]: 90%
